According to PubChem BioAssay (NCI):
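1) Cells in 96-well plates. 2) Compound, 48 h, 5 concentrations. 3) Linear interpolation between surrounding doses. 4) Unreached endpoint = highest concentration. TGI is the concentration that stops growth completely.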

Columns and labels:
Experiment in all cases: NCI-60 cell line screen, 48 h
COLO 205 colon = tested on: COLO 205 colon
MDA-MB-231 breast = tested on: MDA-MB-231 breast
K-562 leukemia = tested on: K-562 leukemia
HOP-62 NSCLC = tested on: HOP-62 NSCLC
SK-MEL-28 melanoma = tested on: SK-MEL-28 melanoma
MDA-MB-435 = tested on: MDA-MB-435
UACC-257 melanoma = tested on: UACC-257 melanoma
EKVX NSCLC = tested on: EKVX NSCLC
HOP-92 NSCLC = tested on: HOP-92 NSCLC
UACC-62 melanoma = tested on: UACC-62 melanoma

SMILES	TGI (COLO 205 colon) [µM]	TGI (MDA-MB-231 breast) [µM]	TGI (K-562 leukemia) [µM]	TGI (HOP-62 NSCLC) [µM]	TGI (SK-MEL-28 melanoma) [µM]	TGI (MDA-MB-435) [µM]	TGI (UACC-257 melanoma) [µM]	TGI (EKVX NSCLC) [µM]	TGI (HOP-92 NSCLC) [µM]	TGI (UACC-62 melanoma) [µM]
COP(=O)(CP(=O)(OC)OCCC(C)CCC=C(C)C)OC (stereo unspecified)	> 100	44.7	> 100	> 100	> 100	> 100	> 100	> 100	–	–
Cc1cn(C2CC(O)C(Cn3nncc3Cn3nc(Br)c(=O)[nH]c3=O)O2)c(=O)[nH]c1=O (stereo unspecified)	> 100	> 100	–	> 100	> 100	> 100	> 100	> 100	> 100	> 100
COc1cc(C(c2ccccc2)N2C(=O)CC[C@H]2C(=O)O)cc(OC)c1OC (stereo partly specified)	> 100	–	> 100	> 100	> 100	> 100	> 100	> 100	> 100	> 100
CC1(C)CC(=O)C(CC2C(=O)CCCC2=O)C(=O)C1	> 100	–	> 100	> 100	> 100	–	> 100	> 100	–	> 100
C/C(=N\N=C(N)N)C(CN1CCOCC1)C(c1ccccc1)c1c(O)c2ccccc2oc1=O (stereo unspecified)	> 100	–	> 100	> 100	> 100	–	> 100	> 100	96.9	> 100
O=C1Sc2ccccc2C(=O)N2CCSC12 (stereo unspecified)	> 100	–	> 100	> 100	> 100	–	> 100	–	> 100	> 100
CCn1c(CCCc2nc3c([nH]2)c(=O)n(C)c(=O)n3C)nc2c1c(=O)n(C)c(=O)n2C	27	> 100	> 100	> 100	> 100	> 100	> 100	> 100	–	> 100
CC(=O)NC1C(OCc2ccccc2)OC(CO)C(O)C1OC(C)C(=O)NC(C(=O)NC(CCC(=O)NCCCNc1ccc([N+](=O)[O-])c2[nH]c3ccccc3c(=O)c12)C(N)=O)C(C)C (stereo unspecified)	> 100	> 100	–	> 100	> 100	> 100	> 100	> 100	> 100	> 100
O=C1CCC2(O)c3ccccc3C2Cc2ccccc21 (stereo unspecified)	> 100	–	> 100	> 100	> 100	–	> 100	> 100	> 100	> 100
OC(CCN1CCN(CCOC(c2ccccc2)c2ccccc2)CC1)c1ccccc1 (stereo unspecified)	29.1	33.6	–	44.3	34.4	38.3	34.8	45.8	75.8	30.2
Cc1cc(N(CCC#N)CCC#N)ccc1/C(N=Nc1ccc(C(=O)O)cc1)=N\NC(=O)c1ccccc1	> 100	> 100	> 100	> 100	–	> 100	> 100	> 100	–	> 100
